Reference: ChEMBL document CHEMBL2429761, “Discovery of ML314, a Brain Penetrant Non-Peptidic β-Arrestin Biased Agonist of the Neurotensin NTR1 Receptor” (ACS Med Chem Lett, 2013)
In brackets after ≈: the same amount, converted by molar mass.

Tests used:
[1] = target: T1, Alpha-1D adrenergic receptor (Homo sapiens) (UniProt P25100); assay: Binding affinity to adrenergic alpha1D receptor (unknown origin) at 10 uM relative to control
T1 sequence (whole entry): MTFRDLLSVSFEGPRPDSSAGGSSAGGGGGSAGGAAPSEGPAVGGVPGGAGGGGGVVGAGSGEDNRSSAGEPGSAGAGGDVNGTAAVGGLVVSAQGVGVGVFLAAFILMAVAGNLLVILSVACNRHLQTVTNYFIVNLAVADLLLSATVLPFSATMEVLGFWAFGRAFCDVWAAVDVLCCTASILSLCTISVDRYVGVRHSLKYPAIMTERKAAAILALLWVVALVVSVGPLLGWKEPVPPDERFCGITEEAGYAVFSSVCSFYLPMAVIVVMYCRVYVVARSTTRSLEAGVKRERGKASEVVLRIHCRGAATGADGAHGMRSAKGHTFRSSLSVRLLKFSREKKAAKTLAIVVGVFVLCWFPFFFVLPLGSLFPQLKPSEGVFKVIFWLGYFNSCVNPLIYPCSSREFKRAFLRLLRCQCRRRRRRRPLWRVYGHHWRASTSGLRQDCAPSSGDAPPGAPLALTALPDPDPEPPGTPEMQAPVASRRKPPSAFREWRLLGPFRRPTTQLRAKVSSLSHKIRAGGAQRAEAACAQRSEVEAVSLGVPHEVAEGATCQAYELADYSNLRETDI

Plasma [2] = assay: Metabolic stability in human plasma assessed as compound remaining at 1 uM after 3 hrs by LC-MS/MS analysis; assay type: ADME, cell-free
Plasma [3] = assay: Plasma protein binding in human at 1 uM after 4 hrs by LC-MS/MS analysis; assay type: ADME, cell-free
[4] = target: T2, Alpha-2A adrenergic receptor (Homo sapiens) (UniProt P08913); assay: Binding affinity to adrenergic alpha2A receptor (unknown origin) at 10 uM relative to control
T2 sequence (whole entry): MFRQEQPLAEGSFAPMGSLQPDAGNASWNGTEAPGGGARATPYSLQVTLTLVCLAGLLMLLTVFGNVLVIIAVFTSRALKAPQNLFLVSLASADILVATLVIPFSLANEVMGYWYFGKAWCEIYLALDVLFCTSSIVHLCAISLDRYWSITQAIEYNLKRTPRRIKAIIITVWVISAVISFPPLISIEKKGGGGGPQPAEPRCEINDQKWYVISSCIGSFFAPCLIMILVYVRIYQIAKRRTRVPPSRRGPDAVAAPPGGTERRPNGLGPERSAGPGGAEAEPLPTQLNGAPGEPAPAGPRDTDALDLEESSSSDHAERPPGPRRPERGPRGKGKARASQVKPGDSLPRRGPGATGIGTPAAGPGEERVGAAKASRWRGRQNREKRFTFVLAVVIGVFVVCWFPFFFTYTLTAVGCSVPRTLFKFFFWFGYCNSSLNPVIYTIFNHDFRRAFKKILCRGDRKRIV

[5] = target: G-protein coupled receptor 35 (Homo sapiens, UniProt Q9HC97); assay: Agonist activity at GPR35 (unknown origin) expressed in human U2OS cells coexpressing beta-arrestin by GFP reporter gene assay; assay type: cell-based
[6] = Effective permeability of the compound at 50 uM after 30 mins at donor pH 7.4 and acceptor pH 7.4 by PAMPA; assay type: ADME; settings: pH 7.4, 0.5 h
[7] = Kinetic solubility of the compound in pION buffer at 250 uM after 18 hrs at pH 6.2; assay type: physicochemical; settings: read-out: Kinetic_solubility
Plasma [8] = assay: Plasma protein binding in mouse at 1 uM after 4 hrs by LC-MS/MS analysis; assay type: ADME, cell-free
[9] = target: T3, Alpha-1B adrenergic receptor (Homo sapiens) (UniProt P35368); assay: Binding affinity to adrenergic alpha1B receptor (unknown origin) at 10 uM relative to control
T3 sequence (whole entry): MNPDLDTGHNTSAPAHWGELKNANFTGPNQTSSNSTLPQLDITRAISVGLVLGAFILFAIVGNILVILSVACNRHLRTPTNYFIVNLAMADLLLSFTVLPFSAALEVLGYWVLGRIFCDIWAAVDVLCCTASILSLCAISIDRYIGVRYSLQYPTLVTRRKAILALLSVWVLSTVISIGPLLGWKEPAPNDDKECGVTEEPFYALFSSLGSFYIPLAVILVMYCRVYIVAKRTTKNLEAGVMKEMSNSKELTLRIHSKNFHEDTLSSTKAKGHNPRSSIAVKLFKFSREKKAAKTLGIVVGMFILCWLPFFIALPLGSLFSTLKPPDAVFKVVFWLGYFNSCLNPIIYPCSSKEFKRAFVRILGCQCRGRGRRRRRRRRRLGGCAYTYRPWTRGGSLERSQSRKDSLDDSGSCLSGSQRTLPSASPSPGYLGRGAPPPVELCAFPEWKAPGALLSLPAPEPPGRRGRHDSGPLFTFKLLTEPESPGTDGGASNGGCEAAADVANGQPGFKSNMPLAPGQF

Sequence of G-protein coupled receptor 35 (Q9HC97 whole entry): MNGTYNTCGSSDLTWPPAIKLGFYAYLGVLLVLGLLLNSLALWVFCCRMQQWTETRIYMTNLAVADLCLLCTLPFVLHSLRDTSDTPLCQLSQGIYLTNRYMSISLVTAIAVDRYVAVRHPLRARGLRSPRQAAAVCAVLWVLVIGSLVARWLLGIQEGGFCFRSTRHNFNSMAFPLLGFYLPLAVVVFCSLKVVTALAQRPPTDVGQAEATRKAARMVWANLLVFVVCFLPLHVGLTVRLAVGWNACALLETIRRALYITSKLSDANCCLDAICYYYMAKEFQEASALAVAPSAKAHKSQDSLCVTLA

COc1cc2nc(C3CC3)nc(N3CCN(c4ccccc4OC)CC3)c2cc1OC gave an Activity [1] of 63%, a Stability (Plasma [2]) of 100% and a PPB (Plasma [3]) of 99.5%. It also gave an Activity [4] of 63%, an EC50 [5] greater than 40 µM and a Peff [6] of 2090 ×10⁻⁶ cm/s. The solubility kinetic at 18 h, 250 µM [7] was 21.4 µM (≈ 9 µg/mL), the PPB (Plasma [8]) was 99.7% and the Activity [9] was 63%.
